# According to ChEMBL document CHEMBL1127093, “Competitive NMDA receptor antagonists: synthesis of -ketophosphonate-substituted piperidine carboxylic acid derivatives” (Bioorg Med Chem Lett, 1993):
# Molecular target: Glutamate NMDA receptor
# Test: Binding potency for NMDA site of the glutamate receptor complex using rat brain cortical membranes in a competitive binding assay with [3H]CPP as the radioligand
# Format: cell membranes, Membrane
row,IC50,SMILES
1,40 nM,O=C(CP(=O)(O)O)[C@H]1CCCN[C@H]1C(=O)O
2,320 nM,C[C@]1(C(=O)CP(=O)(O)O)CCCN[C@H]1C(=O)O
3,3.2 nM,C[C@]1(C(=O)CP(=O)(O)O)C=CCN[C@H]1C(=O)O
4,15 nM,C[C@@H]1CCN[C@@H](C(=O)O)[C@H]1C(=O)CP(=O)(O)O
5,7.6 nM,O=C(CP(=O)(O)O)C1=CCCN[C@H]1C(=O)O
